This assay relates to C3AKF1 mice, hamster liver cystadenocarcinoma s.c., tumor weight T/C. Description: NCI In Vivo Anticancer Drug Screen. Data for tumor model Cystadenocarcinoma, Liver (No. 1) (Hamster) (subcutaneous) in C3AKF1 (CHKRF1) mice. The conditions noted are these: endpoint: mean tumor weight, higher = larger tumour. How it is done: The antitumor activity of compounds was measured in mice bearing transplantable tumors. Survival or tumor size were measured and the results are expressed as the measurement made in the treated group (T) divided by the measurement made in the vehicle treated control group (C). The tumor model used in this assay is Cystadenocarcinoma, Liver (No. 1) (Hamster) (subcutaneous) in C3AKF1 (CHKRF1) mice

Where [1] appears, read: dose: 62.5 mg/kg/injection, schedule: Q01DX010 (ip), vehicle: carboxymethylcellulose (CMC).
The mark [2] stands for this setting: dose: 125.0 mg/kg/injection, schedule: Q01DX010 (ip), vehicle: carboxymethylcellulose (CMC).
Where [3] appears, read: dose: 250.0 mg/kg/injection, schedule: Q01DX010 (ip), vehicle: carboxymethylcellulose (CMC).
The mark [4] stands for this setting: dose: 500.0 mg/kg/injection, schedule: Q01DX010 (ip), vehicle: carboxymethylcellulose (CMC).
Where [5] appears, read: dose: 1.25 mg/kg/injection, schedule: Q01DX010 (ip), vehicle: carboxymethylcellulose (CMC).
Setting [6] is: dose: 2.5 mg/kg/injection, schedule: Q01DX010 (ip), vehicle: carboxymethylcellulose (CMC).
[7] abbreviates: dose: 5.0 mg/kg/injection, schedule: Q01DX010 (ip), vehicle: carboxymethylcellulose (CMC).
The mark [8] stands for this setting: dose: 10.0 mg/kg/injection, schedule: Q01DX010 (ip), vehicle: carboxymethylcellulose (CMC).
Where [9] appears, read: dose: 20.0 mg/kg/injection, schedule: Q01DX010 (ip), vehicle: carboxymethylcellulose (CMC).
Where [10] appears, read: dose: 24.0 mg/kg/injection, schedule: Q01DX010 (ip), vehicle: saline.
The mark [11] stands for this setting: dose: 25.0 mg/kg/injection, schedule: Q01DX010 (ip), vehicle: carboxymethylcellulose (CMC).
Setting [12] is: dose: 50.0 mg/kg/injection, schedule: Q01DX010 (ip), vehicle: carboxymethylcellulose (CMC).
Where [13] appears, read: dose: 100.0 mg/kg/injection, schedule: Q01DX010 (ip), vehicle: carboxymethylcellulose (CMC).
Where [14] appears, read: dose: 400.0 mg/kg/injection, schedule: Q01DX010 (ip), vehicle: carboxymethylcellulose (CMC).
The mark [15] stands for this setting: dose: 15.0 mg/kg/injection, schedule: Q01DX010 (ip), vehicle: carboxymethylcellulose (CMC).
The mark [16] stands for this setting: dose: 30.0 mg/kg/injection, schedule: Q01DX010 (ip), vehicle: carboxymethylcellulose (CMC).

Molecules are shown by their SMILES. Values joined by “and” are separate entries in the source; they are usually repeats but may differ in a detail not shown here. Identical values can stand only once. Results filed as inconclusive are left out.

Drawing on PubChem BioAssay AID234 (DTP/NCI, 2004), this text covers T/C for 23 compounds.

For `C/C=C1\CN(C)[C@H]2Cc3c([nH]c4ccccc34)[C@@H](c3cc4[nH]c5c(c4cc3OC)CCN3C[C@H]4C[C@H](CC)[C@H]3[C@@]5(C(=O)OC)C4)C[C@H]1C2C(=O)OC` (some centres not stated), the T/C (dose: 30.0 mg/kg/injection, schedule: Q01DX010 (ip), vehicle: water) was 70 % of control.
On to `CC(C)CCS(=O)(=O)OCCCCOS(=O)(=O)CCC(C)C`, for which the T/C is 57 % of control under setting [1], 94 % of control under setting [2], 57 % of control under setting [3] and 75 % of control under setting [4].
Consider `O=C1C=Cc2ccc(O)cc2C1=O`, for which the T/C reads like this: under setting [5], 71 % of control; under setting [6], 72 % of control; under setting [7], 74 % of control; under setting [8], 88 % of control and 89 % of control; under setting [9], 74 % of control.
`CCC[CH2][Sn]([CH2]CCC)([CH2]CCC)[O]C(=O)CC[S][Sn]([CH2]CCC)([CH2]CCC)[CH2]CCC`: the T/C (dose: 0.75 mg/kg/injection, schedule: Q01DX010 (ip), vehicle: saline) is 111 % of control; the T/C (dose: 1.5 mg/kg/injection, schedule: Q01DX010 (ip), vehicle: saline) was 77 % of control; the T/C (dose: 3.0 mg/kg/injection, schedule: Q01DX010 (ip), vehicle: saline) is 100 % of control; the T/C (dose: 6.0 mg/kg/injection, schedule: Q01DX010 (ip), vehicle: saline) is 83 % of control and 84 % of control; the T/C (dose: 12.0 mg/kg/injection, schedule: Q01DX010 (ip), vehicle: saline) was 92 % of control; the T/C under setting [10] is 93 % of control.
As for `CCN(CC)CCNc1ccc([N+](=O)[O-])c2sc3ccccc3c(=O)c12`, the T/C reads like this: (dose: 20.0 mg/kg/injection, schedule: Q01DX010 (ip), vehicle: saline) 98 % of control; (dose: 40.0 mg/kg/injection, schedule: Q01DX010 (ip), vehicle: saline) 70 % of control.
For `Fc1ccc(CSc2ncnc3c2ncn3C2CCCCO2)cc1` (configuration not stated), the T/C (dose: 45.0 mg/kg/injection, schedule: Q01DX010 (ip), vehicle: carboxymethylcellulose (CMC)) was 102 % of control; the T/C (dose: 90.0 mg/kg/injection, schedule: Q01DX010 (ip), vehicle: carboxymethylcellulose (CMC)) was 111 % of control; the T/C (dose: 360.0 mg/kg/injection, schedule: Q01DX010 (ip), vehicle: carboxymethylcellulose (CMC)) is 57 % of control and 78 % of control; the T/C (dose: 720.0 mg/kg/injection, schedule: Q01DX010 (ip), vehicle: carboxymethylcellulose (CMC)) is 75 % of control.
As for `O=[n+]1c2c(n([O-])c3ccccc31)-c1cccc3cccc-2c13`, the T/C is 64 % of control under setting [11], 74 % of control under setting [12] and 48 % of control under setting [13].
As for `[I][Hg][CH2]C1COCC([CH2][Hg][I])O1.[I][Hg][CH2]C1COCC([CH2][Hg][I])O1` (configuration not stated), the T/C is, setting by setting: under setting [8], 83 % of control; under setting [9], 109 % of control; (dose: 40.0 mg/kg/injection, schedule: Q01DX010 (ip), vehicle: carboxymethylcellulose (CMC)) 91 % of control.
For `ClCCn1cnc2c(SCc3ccccc3Cl)ncnc21`, the T/C under setting [12] was 96 % of control, the T/C under setting [13] is 64 % of control and the T/C under setting [14] was 49 % of control.
Consider `NC(Cc1ccc(N(CCCl)CCCl)cc1)C(=O)O` (configuration not stated), for which the T/C reads like this: (dose: 1.0 mg/kg/injection, schedule: Q01DX010 (ip), vehicle: carboxymethylcellulose (CMC)) 67 % of control; under setting [5], 70 % of control; (dose: 2.0 mg/kg/injection, schedule: Q01DX010 (ip), vehicle: carboxymethylcellulose (CMC)) 86 % of control; under setting [6], 65 % of control; (dose: 4.0 mg/kg/injection, schedule: Q01DX010 (ip), vehicle: carboxymethylcellulose (CMC)) 52 % of control; under setting [7], 82 % of control.
With `CN(N=O)C(N)=O`, under “dose: 3.75 mg/kg/injection, schedule: Q01DX010 (ip), vehicle: carboxymethylcellulose (CMC)”, the T/C was 95 % of control.
For `CNC=O`, the T/C (dose: 50.0 mg/kg/injection, schedule: Q01DX010 (ip), vehicle: saline) is 39 % of control; the T/C (dose: 100.0 mg/kg/injection, schedule: Q01DX010 (ip), vehicle: saline) is 34 % of control; the T/C (dose: 200.0 mg/kg/injection, schedule: Q01DX010 (ip), vehicle: saline) is 20 % of control.
As for `CCN(CC)CC(C)Nc1ccc(C)c2sc3ccccc3c(=O)c12` (configuration not stated), the T/C is 98 % of control under setting [11], 87 % of control under setting [12] and 76 % of control under setting [13].
`Nc1nc(SCc2ccccc2)c2ncn(C3CCCC3)c2n1`: the T/C (dose: 62.0 mg/kg/injection, schedule: Q01DX010 (ip), vehicle: carboxymethylcellulose (CMC)) is 120 % of control; the T/C under setting [2] is 98 % of control; the T/C under setting [3] was 91 % of control; the T/C under setting [4] is 81 % of control.
Consider `O=C(O)CC(O)(CC(=O)O)C(=O)O.[Ga]`, for which the T/C was 123 % of control (dose: 12.5 mg/kg/injection, schedule: Q01DX010 (ip), vehicle: carboxymethylcellulose (CMC)); 96 % of control under setting [11]; 79 % of control under setting [12].
As to `NC(CCSCc1ccc(N(CCCl)CCCl)cc1)C(=O)O` (configuration not stated), the T/C (dose: 4.5 mg/kg/injection, schedule: Q01DX010 (ip), vehicle: saline) was 90 % of control; the T/C (dose: 9.0 mg/kg/injection, schedule: Q01DX010 (ip), vehicle: saline) is 94 % of control; the T/C (dose: 16.0 mg/kg/injection, schedule: Q01DX010 (ip), vehicle: saline) is 84 % of control; the T/C (dose: 18.0 mg/kg/injection, schedule: Q01DX010 (ip), vehicle: saline) is 52 % of control; the T/C under setting [10] was 63 % of control; the T/C (dose: 36.0 mg/kg/injection, schedule: Q01DX010 (ip), vehicle: saline) was 55 % of control.
As to `CCCCCCCCCCCCCS`, the T/C is 100 % of control under setting [11], 69 % of control under setting [12] and 90 % of control under setting [13].
As to `O=C1C=CC(=O)O1` (tested in a mixture with another compound), the T/C runs as follows: (dose: 1.5 mg/kg/injection, schedule: Q#A X020 (ip), vehicle: carboxymethylcellulose (CMC)) 68 % of control; (dose: 3.5 mg/kg/injection, schedule: Q#A X020 (ip), vehicle: carboxymethylcellulose (CMC)) 82 % of control; (dose: 7.5 mg/kg/injection, schedule: Q#A X010 (ip), vehicle: carboxymethylcellulose (CMC)) 91 % of control; (dose: 62.5 mg/kg/injection, schedule: Q#A X010 (ip), vehicle: carboxymethylcellulose (CMC)) 77 % of control.
Turning to `Cc1ccc(N2CCN(CCCN3CCN(c4ccc(Cl)cc4)CC3)CC2)cc1`, the T/C (dose: 7.5 mg/kg/injection, schedule: Q01DX010 (ip), vehicle: carboxymethylcellulose (CMC)) is 94 % of control; the T/C under setting [15] is 98 % of control; the T/C under setting [16] was 94 % of control.
In the case of `CC(C)=CC1C(C(=O)OCc2ccc(C)cc2C)C1(C)C` (configuration not stated), the T/C is, setting by setting: (dose: 87.5 mg/kg/injection, schedule: Q01DX010 (ip), vehicle: carboxymethylcellulose (CMC)) 90 % of control; (dose: 175.0 mg/kg/injection, schedule: Q01DX010 (ip), vehicle: carboxymethylcellulose (CMC)) 72 % of control; (dose: 350.0 mg/kg/injection, schedule: Q01DX010 (ip), vehicle: carboxymethylcellulose (CMC)) 63 % of control.
As for `CS(=O)(=O)OCCCOS(C)(=O)=O`, the T/C under setting [15] was 53 % of control; the T/C under setting [16] is 79 % of control; the T/C (dose: 60.0 mg/kg/injection, schedule: Q01DX010 (ip), vehicle: carboxymethylcellulose (CMC)) was 53 % of control.
Turning to `CC1(C)CC(C)(c2ccccc2)c2ccccc21` (configuration not stated), the T/C is 97 % of control under setting [1], 87 % of control under setting [2], 90 % of control under setting [3] and 65 % of control under setting [4].
With `ClCCn1cnc2c(SCc3ccccc3)ncnc21`, the T/C was 75 % of control under setting [12]; 84 % of control and 97 % of control under setting [13]; 86 % of control and 89 % of control (dose: 200.0 mg/kg/injection, schedule: Q01DX010 (ip), vehicle: carboxymethylcellulose (CMC)); 68 % of control and 80 % of control under setting [14]; 73 % of control (dose: 600.0 mg/kg/injection, schedule: Q01DX010 (ip), vehicle: carboxymethylcellulose (CMC)).
